Assay results as given in PMC4627311, “Marine alkaloid Monanchocidin a overcomes drug resistance by induction of autophagy and lysosomal membrane permeabilization” (Oncotarget, 2015).
Where two headings read alike, the source gives them in different places.

Legend:
NCCIT-R cells [1] = experiment: Drug combination MTT assay, Chou-Talalay method (CI)
Experimental: (§6) F, Effect of MonA in combination with cisplatin on NCCIT-R cells, examined by the MTT assay. Cells were co-treated with different concentrations of the single substances or their combination for 48 h at a constant molar ratio. The combinational index (CI) values were calculated with CompuSyn software. The ratio of the substances is C(MonA) : C(cisplatin) = 1.2 : 10.
(§7) Co-treatment of MonA and the indicated inhibitors for 48 h was performed. The combinational index (CI) values were calculated with the CompuSyn software for the Fa (fraction affected) = 0.5.
(§8) Determination of synergistic or antagonistic drug effects in combination assays was performed using the Chou-Talalay method [20]. Data were generated by MTT assay. The combinational index (CI) was calculated for the constant drugs ratio with the CompuSyn v.1.0. software (ComboSyn, Inc., Paramus, NJ, USA). Synergism is defined as a CI < 1, whereas antagonism is defined by a CI > 1. The MTT assay was used to examine the combination of MonA at the IC50 with defined inhibitors of autophagy or LMP, or with the IC50 of cisplatin. […] All experiments were performed in triplicates and were repeated at least three times.
MonA : z-VAD-fmk 1.2 µM : 100 µM
MonA : calpeptine 1.2 µM : 50 µM
MonA : leupeptine 1.2 µM : 100 µM
(§9) MonA : protease inhibitors cocktail 1.2 µM : 0.02 tablet/ml
(cOmplete Mini EDTA-free)

2102EP-R = experiment: MTT cytotoxicity assay, 2102EP-R; type: cell-based, human; settings: cisplatin-resistant GCT, 72 h
Text: (§1) The human prostate cancer cell lines PC3 (docetaxel resistant, androgen-independent), DU145 (docetaxel sensitive, androgen-independent), LNCaP (docetaxel sensitive, androgen-dependent), human bladder cancer cell lines RT112, RT4, 486p, T24, human embryonic kidney cell line HEK 293T, human embilical vascular endothelium cell line HUVEC, as well as human fibroblast cell lines MRC-5 and MRC-9 were obtained from ATCC (Manassas, VA, USA). The human germ cell tumor cancer cell line NCCIT was obtained from DSMZ (Braunschweig, Germany). TCam-2 and 2102EP cells were kindly provided by Prof. L. Looijenga (Rotterdam, The Netherlands). The cisplatin-resistant sublines NCCIT-R and 2102EP-R have been generated as reported before. Cells were cultured according to the manufacturers instructions (culture conditions are described in the supplementary). Cells were continuously kept in culture for a maximum of 3 months, and were routinely inspected microscopically for stable phenotype and regularly checked for contamination with mycoplasma. Cell line authentication was performed by DSMZ (Braunschweig, Germany) using highly polymorphic short tandem repeat loci.
(§2) The in vitro cytotoxicity of individual substances and drug combinations was evaluated using the MTT (3-(4,5-dimethylthiazol-2-yl)-2,5-diphenyltetrazolium bromide) assay, which was performed as previously described.

TCam-2 = experiment: MTT cytotoxicity assay, TCam-2; type: cell-based, human; settings: TCam-2, cisplatin-sensitive GCT, 72 h
Text: as §1, §2

2102EP = experiment: MTT cytotoxicity assay, 2102EP; type: cell-based, human; settings: cisplatin-sensitive GCT, 72 h
Text: as §1, §2

RT112 = experiment: MTT cytotoxicity assay, RT112; type: cell-based, human; settings: 72 h
Text: as §1, §2

NCCIT-R cells [2] = experiment: Western blotting / PAGE of protein extracts; type: cell-based, human; settings: for Expression of LC3B-II (marker of autophagy): MonA 0.25 – 2 μM long-term or 20 – 50 μM short-term, reference drugs 48 h
Experimental: (§3) Figure 3 Effect of MonA on activation of MAPK and protein degradation A, NCCIT-R cells were analyzed after treatment with MonA for 1 h by Western blotting. Cells treated with 50 μM of anisomycin for 1 h (Aniso) were used as a positive control for MAPK activation. […] C, Analysis of NCCIT-R cells treated with 1 μM of MonA for 1 h. […] Two samples of the spot were randomly picked from the area between ~5 kDa and ~1 kDa, followed by trypsination and identification of peptides by tandem mass spectrometry. D, Analysis of NCCIT-R cells treated with 20 μM of MonA for 1-3 h. Cleavage of PARP and caspase-3 were investigated as hallmarks of apoptosis. Cells treated with 10 μM of cisplatin (CP) for 48 h were used for comparison of the effects of a classical cytotoxic agent. E, Analysis of non-malignant HEK 293T cells treated with 0.0625 – 1 μM of MonA for 48 h.
Figure 5 Effect of cytotoxic compounds on NCCIT-R cells A, NCCIT-R cells were treated with docetaxel, anisomycin, or cisplatin for 48 h. The effect on markers of apoptosis (cleavage of PARP and caspase-3) and autophagy (LC3B-II) were analyzed using Western blotting. While all show induction of apoptosis, expression of LC3B-II is not increased after treatment with these substances. B, Microphotographs of NCCIT-R cells treated with cisplatin or MonA for 48 h show morphological changes induced by the substances. The pictures were made at x100 magnification. Each bar represents 50 μm.
(§4) Preparation of protein extracts and Western blotting were performed as described previously with slight modifications. In brief, 1 × 10^6 cells/well were seeded in Petri dishes (ø 6 cm, 5 mL/dish). Cells were harvested, proteins were extracted, subjected to electrophoresis in 10-15% SDS-polyacrylamide gels at 120 V, and transferred from gel to a 0.2 μm pore PVDF membrane. The membrane was blocked and incubated with the primary antibody according to the manufacturer's protocol (for antibodies used, see the supplementary). After washing, the membranes were incubated with the corresponding secondary antibody for 1 h at RT. Signals were detected using the ECL chemiluminescence system (Thermo Scientific, Rockford, IL, USA) according to the manufacturer's protocol.
SDS-polyacrylamide gels were prepared as described above. Dye-free loading buffer was used for the protein samples preparation. Gels were fixed and stained with colloidal Coomassie Blue overnight, destained, and digitalized as previously described.

NCCIT = experiment: MTT cytotoxicity assay, NCCIT; type: cell-based, human; settings: cisplatin-sensitive GCT, 72 h
Text: as §1, §2

NCCIT-R = experiment: MTT cytotoxicity assay, NCCIT-R; type: cell-based, human
Text: as §1, §2

RT4 = experiment: MTT cytotoxicity assay, RT4; type: cell-based, human; settings: 72 h
Text: as §1, §2

T24 = experiment: MTT cytotoxicity assay, T24; type: cell-based, human; settings: 72 h
Text: as §1, §2

486p = experiment: MTT cytotoxicity assay, 486p; type: cell-based, human; settings: bladder cancer, 72 h
Text: as §1, §2

NCCIT-R cells [3] = experiment: Acridine orange staining of lysosomes (LMP); type: cell-based, human
Experimental: (§5) Intact lysosomes were observed as organelles emitting red fluorescence (indicated by arrows). Red fluorescence was quantified using Image J software and is graphically depicted by column bars. B, Cells were treated with MonA for 48 h, and immobilized on glass plates. Samples were permeabilized, blocked, labeled with a primary anti-cathepsin B antibody, followed by a secondary Alexa Fluor 488-conjugated antibody labeling, and analyzed using fluorescent microscopy. […] The microphotographs (A, B) were made at x400 and x100 magnifications. Each bar represents 50 μm.
NCCIT-R cells were pre-incubated overnight in 8-chamber glass slides (5 × 10^4 cells/chamber). The medium was changed with medium containing different concentrations of the substances examined, and cells were treated for 60 min. Then cells were washed twice with PBS solution, stained with 0.5 μg/mL of acridine orange/PBS for 15 min at 37°C, covered with DAPI-based ProLong® Gold reagent (Life Technologies, Eugene, OR, USA), and immediately analyzed with AxioScope.A1 (Carl Zeiss) microscope and with the AxioVision40 V4.8 software (Carl Zeiss Imaging Solutions, Göttingen, Germany). Red fluorescence measurements and quantification were performed with Image J software (NIH, Bethesda, USA).

HEK 293T cells = experiment: Western blotting / PAGE, protein degradation in non-malignant cells; type: cell-based, human; settings: non-malignant HEK 293T, 0.0625 – 1 μM, 48 h
Experimental: as §3
Preparation of protein extracts and Western blotting were performed as described previously with slight modifications. In brief, 1 × 10^6 cells/well were seeded in Petri dishes (ø 6 cm, 5 mL/dish). Cells were harvested, proteins were extracted, subjected to electrophoresis in 10-15% SDS-polyacrylamide gels at 120 V, and transferred from gel to a 0.2 μm pore PVDF membrane. […] Signals were detected using the ECL chemiluminescence system (Thermo Scientific, Rockford, IL, USA) according to the manufacturer's protocol. […]

LNCaP = experiment: MTT cytotoxicity assay, LNCaP; type: cell-based; settings: Homo sapiens, prostate cancer, 72 h
Text: as §1, §2

MRC-5 = experiment: MTT cytotoxicity assay, MRC-5; type: cell-based; settings: Homo sapiens, MRC5, MRC-5, non-malignant, 72 h
Text: as §1, §2

prostate cancer cells = experiment: Western blotting of LC3B-II in prostate cancer cells; type: cell-based, human; settings: 48 h
Experimental: as §4

MRC-9 = experiment: MTT cytotoxicity assay, MRC-9; type: cell-based; settings: Homo sapiens, MRC9, MRC-9, non-malignant, 72 h
Text: as §1, §2

PC3 = experiment: MTT cytotoxicity assay, PC3; type: cell-based; settings: Homo sapiens, PC-3, PC3, prostate cancer, 72 h
Text: as §1, §2

NCCIT-R cells [4] = experiment: Detection of cathepsin B release; type: cell-based, human; settings: 48 h
Experimental: as §5
To assess release of cathepsin B into the extracellular space, NCCIT-R cells were pre-incubated overnight in 6-well plates (2 × 10^5 cells/well), and were then treated with MonA for 48 h. After trypsination, cells were immobilized on glass slides using the cytospin method and dried overnight. Cells were fixed with 2% (w/v) PFA/PBS, washed with PBS and permeabilized with 0.1% (v/v) Triton X-100 solution in 2% (v/v) normal goat serum/PBS for 30 min. […] Then, samples were washed with PBS, covered with DAPI-based ProLong® Gold reagent (Life Technologies) and directly analyzed with AxioScope.A1 (Carl Zeiss) microscope and with the AxioVision40 V4.8 software (Carl Zeiss Imaging Solutions).

HUVEC = experiment: MTT cytotoxicity assay, HUVEC; type: cell-based; settings: Homo sapiens, non-malignant, 72 h
Text: as §1, §2

HL-60 = system: HL-60; parameters: method as in PMID 20804151; settings: cited from earlier work
DU145 = experiment: MTT cytotoxicity assay, DU145; type: cell-based; settings: Homo sapiens, DU-145, DU145, prostate cancer, 72 h
Text: as §1, §2

THP-1 = system: THP-1; parameters: method as in PMID 20804151; settings: cited from earlier work
HEK 293T = experiment: MTT cytotoxicity assay, HEK 293T; type: cell-based; settings: Homo sapiens, non-malignant, 72 h
Text: as §1, §2

HeLa = system: HeLa; parameters: method as in PMID 20804151; settings: cited from earlier work
NCCIT-R cells [5] = system: NCCIT-R cells
Experimental: as §6, §7, §8
MonA : z-VAD-fmk 1.2 µM : 100 µM
MonA : calpeptine 1.2 µM : 50 µM
MonA : leupeptine 1.2 µM : 100 µM
as §9
(cOmplete Mini EDTA-free)

With Cn1cnc(N)c2ncnc1-2 [3-MA, 3-methyladenine, reference compound] the “Effect of inhibitor on cytotoxicity of MonA (combinational index)” value (NCCIT-R cells [1]; 48 h, MTT, CI at Fa = 0.5, ratios in Table S3) was “most pronounced antagonistic effect”.

N.N.[Cl][Pt][Cl] [Cisplatin, cis-diamminedichloroplatinum (II), reference compound] gave an IC50 (2102EP-R) of 4930 nM, an IC50 (TCam-2) of 2480 nM and an IC50 (2102EP) of 644 nM. The IC50 (RT112; RT112, bladder cancer) was 8990 nM, the “Markers of apoptosis (cleavage of PARP and caspase-3)” value (“Markers of apoptosis” for short) (NCCIT-R cells [2]; Western blotting) was “increase of markers of apoptosis” and the “Expression of LC3B-II (marker of autophagy)” value (shortened to “Expression of LC3B-II”) (NCCIT-R cells [2]; Western blotting) was “None of the drugs revealed an up-regulation of LC3B-II”. For the same compound, the IC50 (NCCIT) was 1560 nM, the IC50 (NCCIT-R; cisplatin-resistant GCT, 72 h, MTT) was 8930 nM and the IC50 (RT4; RT4, bladder cancer) was 11900 nM. The IC50 (T24; T24, bladder cancer) was 9070 nM and the IC50 (486p) was 20800 nM.

For CC/C=C/[C@@H]1CC[C@]2(C[C@H]3CC[C@H]4[C@@H](C(=O)OC(CC)CCCCCCCCCCCCC[C@@H]5O[C@](O)(CCN)[C@H](O)N(CCCN)C5=O)[C@@]5(CCC[C@H](C)O5)NC(=[N+]34)N2)O1 (stereo partly drawn) [MonA, Monanchocidin A], the IC50 (2102EP-R; Homo sapiens) was 306 nM, the IC50 (TCam-2; Homo sapiens) was 440 nM and the “Lysosomal membrane permeabilization (acridine orange fluorescence)” value (NCCIT-R cells [3]) was “disappearance of red fluorescence coupled with increased green fluorescence”. The IC50 (2102EP; Homo sapiens) was 341 nM, the IC50 (RT112; Homo sapiens, RT-112, RT112, bladder cancer) was 263 nM and the Protein degradation (HEK 293T cells) was “did not reveal any signs of protein degradation”. For the same compound, the IC50 (LNCaP) was 265 nM, the IC50 (MRC-5) was 756 nM and the “Expression of LC3B-II” value (prostate cancer cells) was “up-regulation of LC3B-II”. For the same compound, the IC50 (MRC-9) was 708 nM, the IC50 (PC3) was 420 nM and the “Concentration at which release of cathepsin B into the extracellular space occurred” value (NCCIT-R cells [4]) was ≥ 2 µM. For the same compound, the “Effect of MonA in combination with cisplatin (combinational index)” value (NCCIT-R cells [1]; 48 h co-treatment, C(MonA) : C(cisplatin) = 1.2 : 10) was “strong synergistic effects”, the “Activation of MAPK (p38, ERK, JNK)” value (NCCIT-R cells [2]; 50 μM, 1 h, Western blotting) was “Activation of p38 and ERK, but not JNK” and the “Expression of LC3B-II” value (NCCIT-R cells [2]; Western blotting) was “up-regulation of LC3B-II”. For the same compound, the Protein degradation (NCCIT-R cells [2]; short term 30 μM - 50 μM or long-term 0.5 μM - 2 μM) was “Degradation of different proteins was observed”, the IC50 (HUVEC) was 838 nM and the IC50 (NCCIT; Homo sapiens) was 210 nM. The IC50 (NCCIT-R; Homo sapiens, 48 h of treatment) was 500 to 1000 nM, the IC50 (NCCIT-R; Homo sapiens, cisplatin-resistant GCT, 72 h, MTT) was 253 nM and the Cytotoxic activity (HL-60) was “micro- and nanomolar concentrations”. For the same compound, the IC50 (DU145) was 482 nM, the Cytotoxic activity (THP-1) was “micro- and nanomolar concentrations” and the IC50 (RT4; Homo sapiens, RT-4, RT4, bladder cancer) was 580 nM. For the same compound, the IC50 (T24; Homo sapiens, T-24, T24, bladder cancer) was 413 nM, the IC50 (HEK 293T) was 670 nM and the IC50 (486p; Homo sapiens) was 273 nM. For the same compound, the Cytotoxic activity (HeLa) was “micro- and nanomolar concentrations”.

For COc1ccc(C[C@H]2NC[C@H](O)[C@H]2OC(C)=O)cc1 [anisomycin, Anisomycin], the “Markers of apoptosis” value (NCCIT-R cells [2]; Western blotting) was “increase of markers of apoptosis” and the “Expression of LC3B-II” value (NCCIT-R cells [2]; Western blotting) was “None of the drugs revealed an up-regulation of LC3B-II”.

With CC(=O)O[C@@]12CO[C@@H]1C[C@H](O)[C@@]1(C)C(=O)[C@H](O)C3=C(C)[C@@H](OC(=O)[C@H](O)[C@@H](NC(=O)OC(C)(C)C)c4ccccc4)C[C@@](O)([C@@H](OC(=O)c4ccccc4)[C@H]21)C3(C)C [docetaxel] the “Markers of apoptosis” value (NCCIT-R cells [2]; Western blotting) was “increase of markers of apoptosis” and the “Expression of LC3B-II” value (NCCIT-R cells [2]; Western blotting) was “None of the drugs revealed an up-regulation of LC3B-II”.

For z-VAD(OMe)-fmk [z-VAD-fmk], the “Effect of inhibitor on cytotoxicity of MonA (combinational index)” value (NCCIT-R cells [5]) was “moderate antagonistic effect”.
